Assay results published in the NIST ThermoML archive (doi:10.1016/j.jct.2007.11.002).

Test: xn = mol fraction of the nth substance listed
Conditions: 101 kPa, Liquid; for viscosity: Capillary tube (Ostwald / Ubbelohde) method

CN1CCOCC1 [N-methylmorpholine] + c1ccccc1
Conditions | mass density, 298.15 K [kg/m3] | mass density, 303.15 K [kg/m3] | mass density, 313.15 K [kg/m3] | mass density, 323.15 K [kg/m3] | viscosity, 298.15 K [mPa·s] | viscosity, 303.15 K [mPa·s] | viscosity, 313.15 K [mPa·s] | viscosity, 323.15 K [mPa·s]
x2 = 0.0554 | 912.69 | 907.91 | 898.27 | 879.87 | 0.847 | 0.836 | 0.811 | 0.789
x2 = 0.1167 | 911.11 | 906.07 | 896.38 | 878.41 | 0.814 | 0.805 | 0.781 | 0.761
x2 = 0.1798 | 909.39 | 904.33 | 894.47 | 876.92 | 0.783 | 0.772 | 0.746 | 0.731
x2 = 0.2477 | 907.18 | 902.35 | 892.51 | 875.44 | 0.753 | 0.741 | 0.713 | 0.695
x2 = 0.2855 | 906.2 | 901.15 | 891.26 | 874.46 | 0.737 | 0.725 | 0.695 | 0.676
x2 = 0.3422 | 904.33 | 899.41 | 889.48 | 873.1 | 0.715 | 0.7 | 0.668 | 0.647
x2 = 0.3762 | 903.31 | 898.32 | 888.33 | 872.2 | 0.704 | 0.688 | 0.654 | 0.632
x2 = 0.4244 | 901.72 | 896.71 | 886.67 | 870.91 | 0.687 | 0.671 | 0.636 | 0.613
x2 = 0.479 | 899.69 | 894.8 | 884.72 | 869.39 | 0.672 | 0.656 | 0.617 | 0.592
x2 = 0.5466 | 897 | 892.15 | 881.97 | 867.18 | 0.655 | 0.637 | 0.598 | 0.568
x2 = 0.5911 | 895.2 | 890.3 | 880.1 | 865.69 | 0.646 | 0.628 | 0.587 | 0.556
x2 = 0.6201 | 893.8 | 889.05 | 878.76 | 864.58 | 0.641 | 0.622 | 0.579 | 0.548
x2 = 0.6822 | 891 | 886.21 | 875.84 | 862.22 | 0.631 | 0.61 | 0.565 | 0.531
x2 = 0.7094 | 889.5 | 884.9 | 874.61 | 861.22 | 0.628 | 0.606 | 0.561 | 0.525
x2 = 0.7655 | 886.8 | 882.04 | 871.56 | 858.69 | 0.625 | 0.6 | 0.551 | 0.509
x2 = 0.7901 | 885.2 | 880.63 | 870.14 | 857.49 | 0.621 | 0.597 | 0.548 | 0.503
x2 = 0.8439 | 882.2 | 877.64 | 867.09 | 854.96 | 0.618 | 0.589 | 0.535 | 0.486
x2 = 0.8933 | 879.6 | 874.81 | 864.21 | 852.55 | 0.613 | 0.583 | 0.521 | 0.468
x2 = 0.9278 | 877.5 | 872.82 | 862.18 | 850.86 | 0.61 | 0.578 | 0.512 | 0.458
x2 = 0.9641 | 875.4 | 870.63 | 859.95 | 848.96 | 0.606 | 0.571 | 0.503 | 0.448
